Reference: patent US20250144067A1, “PERSONALIZED STARVATION THERAPY FOR CANCER” (Faeth Therapeutics, Inc., priority 2021, published 2025)
Where a name gives a salt, the structure may show the parent alone. Read-outs that look alike come from different tables or passages of the source.

Legend:
[1] = system: NCI-H292 lung cancer cells; assay: FDA drug screening, complete media vs cholesterol-free media without statin (TABLE 1); format: cell-based, human
[2] = system: NCI-H292 lung cancer cells; assay: FDA drug screening, complete media vs cholesterol-free media with simvastatin (TABLE 2); format: cell-based, human
[3] = Complete minus Cholesterol-free, […]
[4] = NCI-H292 cells, FDA drug library screen, cholesterol-free media without statin
[5] = NCI-H292 cells, FDA drug library screen, complete media
[6] = NCI-H292 cells, cholesterol-free media with simvastatin 0.04 μM, FDA drug library screen (TABLE 2)
[7] = NCI-H292 cells, complete media, FDA drug library screen (TABLE 2)
[8] = complete media minus cholesterol-free media + simvastatin (0.04 μM), […]
[9] = NCI-H292 cells, cholesterol-free media without statin, FDA drug library screen
[10] = NCI-H292 cells, complete media, FDA drug library screen
[11] = complete vs cholesterol-free media, […]
[12] = NCI-H292 cells in cholesterol-free media without statin
[13] = NCI-H292 cells in complete media
[14] = NCI-H292 cells, FDA drug library screen, cholesterol-free media with simvastatin 0.04 μM
[15] = complete media minus cholesterol-free media + simvastatin, […]
[16] = Complete minus Cholesterol-free, >0 enhanced anti-cancer activity, about 0 neutral, <0 antagonist
[17] = NCI-H292 cells, cholesterol-free media without statin
[18] = NCI-H292 cells, cholesterol-free media with simvastatin 0.04 μM, cell growth value in FDA drug screen
[19] = NCI-H292 cells, complete media, cell growth value in FDA drug screen
[20] = complete media minus cholesterol-free media + simvastatin, >0 enhanced anti-cancer activity, about 0 neutral, <0 antagonist
[21] = NCI-H292 cells, drug in cholesterol-free media with simvastatin 0.04 μM
[22] = NCI-H292 cells, drug in complete media
[23] = complete media vs cholesterol-free media + simvastatin (0.04 μM), […]
[24] = complete vs cholesterol-free media, greater than 0 enhanced anti-cancer activity, about 0 neutral, below 0 antagonists
[25] = complete media vs cholesterol-free media + simvastatin (0.04 μM), >0 enhanced anti-cancer activity, about 0 neutral, <0 antagonist
[26] = NCI-H292 cells, FDA library drug in cholesterol-free media with simvastatin 0.04 μM
[27] = NCI-H292 cells, FDA library drug in complete media
[28] = Complete minus Cholesterol-free, greater than 0 enhanced anti-cancer activity, about 0 neutral, below 0 antagonist

CC(=O)C1CCC2C3CC=C4CC(OS(=O)(=O)O)CCC4(C)C3CCC12C (stereo not shown) [Pregnenolone monosulfate]
Difference [1, 3]: −0.11 | Cholesterol-free [1, 4]: 1.032 | Complete [1, 5]: 0.9202 | Cholesterol-free media + simvastatin (0.04 μM) [2, 6]: 1.305 | Complete Media [2, 7]: 1.254 | Difference [2, 8]: −0.05

CN(C)[C@@H]1C(O)=C(C(N)=O)C(=O)[C@@]2(O)C(O)=C3C(=O)c4c(O)c(NC(=O)CN5CCCC5)cc(F)c4C[C@H]3C[C@@H]12 [Eravacycline (dihydrochloride)]
Cholesterol-free [1, 9]: 0.2139 | Complete [1, 10]: 0.4019 | Difference [1, 11]: 0.19 | Cholesterol-free media + simvastatin (0.04 μM) [2, 6]: 0.8088 | Complete Media [2, 7]: 0.7999 | Difference [2, 8]: −0.01

CCOC(=O)c1cncn1[C@H](C)c1ccccc1 [Etomidate (hydrochloride)]
Difference [1, 3]: −0.60 | Cholesterol-free [1, 12]: 1.469 | Complete [1, 13]: 0.8733 | Cholesterol-free media + simvastatin (0.04 μM) [2, 14]: 0.8714 | Complete Media [2, 5]: 1.097 | Difference [2, 15]: 0.23

C=CC[C@@H]1/C=C(\C)C[C@H](C)C[C@H](OC)[C@H]2O[C@@](O)(C(=O)C(=O)N3CCCC[C@H]3C(=O)O[C@H](/C(C)=C/[C@@H]3CC[C@@H](O)[C@H](OC)C3)[C@H](C)[C@@H](O)CC1=O)[C@H](C)C[C@@H]2OC [Tacrolimus (monohydrate)]
Difference [1, 16]: −0.26 | Cholesterol-free [1, 17]: 1.012 | Complete ([1]; NCI-H292 cells, complete media): 0.7533 | Cholesterol-free media + simvastatin (0.04 μM) [2, 18]: 1.131 | Complete Media [2, 19]: 1.225 | Difference [2, 20]: 0.09

Edoxaban (tosylate monohydrate)
Cholesterol-free [1, 9]: 0.765 | Complete [1, 10]: 0.9385 | Difference [1, 11]: 0.17 | Cholesterol-free media + simvastatin (0.04 μM) [2, 21]: 1.271 | Complete Media [2, 22]: 1.053 | Difference [2, 23]: −0.22

Toremifene (citrate)
Complete [1]: 0.7656 | Difference [1]: −0.28 | Cholesterol-free media + simvastatin (0.04 μM) [2]: 0.4491 | Difference [2]: 0.61

CNCC[C@H](Oc1cccc2ccccc12)c1cccs1 [Duloxetine (hydrochloride)]
Cholesterol-free [1]: 1.331 | Complete [1]: 1.434 | Difference [1]: 0.10 | Cholesterol-free media + simvastatin (0.04 μM) [2]: 1.089 | Complete Media [2]: 1.143 | Difference [2]: 0.05

CC(C)NCC(O)COc1ccc(CC(N)=O)cc1 (stereo not shown) [Atenolol]
Difference [1, 16]: −0.26 | Cholesterol-free [1, 17]: 1.429 | Cholesterol-free media + simvastatin (0.04 μM) [2, 18]: 0.9412 | Complete Media [2, 19]: 1.006 | Difference [2, 20]: 0.06

C[C@]12C=CC(=O)C=C1CC[C@H]1[C@@H]3C[C@@H](O)[C@](O)(C(=O)CO)[C@@]3(C)C[C@H](O)[C@@]12F [Triamcinolone]
Difference [1, 16]: −0.27 | Cholesterol-free [1, 17]: 0.8896 | Complete ([1]; NCI-H292 cells, complete media): 0.6155 | Cholesterol-free media + simvastatin (0.04 μM) [2, 6]: 1.201 | Difference ([2]; complete media minus cholesterol-free media + simvastatin (0.04 μM), >0 enhanced anti-cancer activity, about 0 neutral, <0 antagonist): −0.04

Isoconazole (nitrate)
Difference [1, 3]: −0.15 | Cholesterol-free [1, 4]: 1.53 | Complete [1, 5]: 1.383 | Cholesterol-free media + simvastatin (0.04 μM) [2, 14]: 0.3001 | Complete Media [2, 5]: 0.7337 | Difference [2, 15]: 0.43

O=Cc1ccc(O[C@@H]2O[C@H](CO)[C@@H](O)[C@@H](O)[C@H]2O)cc1 [Helicid]
Difference [1, 3]: −0.20 | Cholesterol-free [1, 17]: 1.202 | Complete ([1]; NCI-H292 cells, complete media): 1.003 | Cholesterol-free media + simvastatin (0.04 μM) [2, 21]: 1.093 | Complete Media [2, 22]: 0.9239 | Difference [2, 23]: −0.17

COc1ccnc(C[S+]([O-])c2nc3cc(-n4cccc4)ccc3[nH]2)c1C (stereo not shown) [Ilaprazole (sodium)]
Cholesterol-free [1, 17]: 1.162 | Complete ([1]; NCI-H292 cells, complete media): 0.7783 | Difference [1, 24]: −0.38 | Cholesterol-free media + simvastatin (0.04 μM) [2, 18]: 1.333 | Complete Media [2, 19]: 1.428 | Difference [2, 20]: 0.10

NS(=O)(=O)c1cc2c(cc1Cl)N=CNS2(=O)=O [Chlorothiazide]
Cholesterol-free [1, 9]: 0.8661 | Complete [1, 10]: 1.321 | Difference ([1]; complete vs cholesterol-free media, >0 enhanced anti-cancer activity, about 0 neutral, <0 antagonist): 0.45 | Cholesterol-free media + simvastatin (0.04 μM) [2, 21]: 1.126 | Complete Media [2, 22]: 0.9372 | Difference [2, 25]: −0.19

N[C@H]1C(O)O[C@H](CO)[C@@H](O)[C@@H]1O (stereo partly shown) [Glucosamine]
Cholesterol-free [1, 17]: 1.17 | Complete ([1]; NCI-H292 cells, complete media): 0.7725 | Difference [1, 24]: −0.40 | Cholesterol-free media + simvastatin (0.04 μM) [2, 26]: 1.916 | Difference [2, 25]: −0.77

Cc1cccc(C)c1NC(=O)C(C)N (stereo not shown) [Tocainide (hydrochloride)]
Cholesterol-free [1, 17]: 1.376 | Complete ([1]; NCI-H292 cells, complete media): 0.9544 | Difference [1, 24]: −0.42 | Cholesterol-free media + simvastatin (0.04 μM) [2, 21]: 1.258 | Complete Media [2, 22]: 1.006 | Difference [2, 25]: −0.25

Cn1c(=O)c2[nH]cnc2n(C)c1=O [Theophylline]
Cholesterol-free [1, 17]: 1.592 | Complete ([1]; NCI-H292 cells, complete media): 1.176 | Difference [1, 24]: −0.42 | Cholesterol-free media + simvastatin (0.04 μM) [2, 14]: 1.182 | Complete Media [2, 5]: 1.026 | Difference [2, 25]: −0.16

C[C@]12CC[C@@H]3c4ccc(O)cc4CC[C@H]3[C@@H]1CCC2=O [Estrone]
Cholesterol-free [1, 17]: 1.426 | Complete ([1]; NCI-H292 cells, complete media): 1.109 | Difference [1, 24]: −0.32 | Cholesterol-free media + simvastatin (0.04 μM) [2, 26]: 1.409 | Complete Media [2, 27]: 1.088 | Difference [2, 25]: −0.32

CC(=O)NS(=O)(=O)c1ccc(NC(=O)c2ccccc2C(=O)O)cc1 [Phthalylsulfacetamide]
Difference [1, 16]: −0.29 | Cholesterol-free [1, 17]: 1.274 | Complete ([1]; NCI-H292 cells, complete media): 0.9792 | Cholesterol-free media + simvastatin (0.04 μM) [2, 26]: 1.031 | Complete Media [2, 27]: 0.7098 | Difference [2, 25]: −0.32

Cc1ncc([N+](=O)[O-])n1CCO [Metronidazole]
Difference [1, 16]: −0.03 | Cholesterol-free [1, 9]: 1.006 | Complete [1, 10]: 0.9754 | Cholesterol-free media + simvastatin (0.04 μM) [2, 26]: 1.741 | Complete Media [2, 27]: 1.475 | Difference [2, 25]: −0.27

Cc1cnc(C(=O)O)c[n+]1[O-] [Acipimox]
Cholesterol-free [1, 17]: 1.354 | Complete ([1]; NCI-H292 cells, complete media): 1.008 | Difference [1, 24]: −0.35 | Cholesterol-free media + simvastatin (0.04 μM) [2, 14]: 1.352 | Complete Media [2, 5]: 1.26 | Difference [2, 25]: −0.09

CN(C)c1cc(CNCC(C)(C)C)c(O)c2c1C[C@H]1C[C@H]3[C@H](N(C)C)C(O)=C(C(N)=O)C(=O)[C@@]3(O)C(O)=C1C2=O [Omadacycline (hydrochloride)]
Difference [1, 28]: −0.15 | Cholesterol-free [1, 4]: 1.103 | Complete [1, 5]: 0.9531 | Cholesterol-free media + simvastatin (0.04 μM) [2, 14]: 1.209 | Complete Media [2, 5]: 1.089 | Difference [2, 25]: −0.12

CC(C)CN(C[C@@H](OP(=O)(O)O)[C@H](Cc1ccccc1)NC(=O)O[C@H]1CCOC1)S(=O)(=O)c1ccc(N)cc1 [Fosamprenavir (Calcium Salt)]
Difference [1, 28]: −0.11 | Cholesterol-free [1, 4]: 1.061 | Complete [1, 5]: 0.9495 | Cholesterol-free media + simvastatin (0.04 μM) [2, 18]: 0.8511 | Complete Media [2, 19]: 0.8779 | Difference [2, 20]: 0.03

CCCCOc1cc(C(=O)NCCN(CC)CC)c2ccccc2n1 [Dibucaine]
Difference ([1]; Complete minus Cholesterol-free, greater than 0 enhanced anti-cancer activity, about 0 neutral, below 0 antagonists): −0.63 | Cholesterol-free [1, 12]: 1.382 | Complete [1, 13]: 0.749 | Cholesterol-free media + simvastatin (0.04 μM) [2, 18]: 0.8438 | Complete Media [2, 19]: 0.9323 | Difference [2, 20]: 0.09
